Reference: US11439657B2, “Cancer stem cell growth inhibitor using miRNA” (CancerStem Tech Inc., priority 2017, dated 2022)
“Also recorded” adds a separate entry of the source.

Columns and labels:
[1] = test system: cancer stem cell population (ZsGreen+) established from pancreatic cancer cell line Panc-1; assay: Screening of miRNAs: cell count (cell viability) of the cancer stem cell population after transfection; assay type: cell-based, human; conditions: miRNA 10 pmol/well, lipofectamin 2000, cells counted 48 and 72 hours later, FIG. 4
From the text: A cancer stem cell line was established by transducing a pancreatic cancer cell line (Panc-1) with an ODC (Ornithine Decarboxylase)-Degron system capable of visualizing low metabolism that is a property of cancer stem cells using a retrovirus vector (FIG. 1a). The base sequence coding the used ODC-Degron is as set forth in SEQ ID NO: 10. Usually, cancer stem cells are so 26s proteasome hypometabolic that they cannot degrade the introduced fluorescently labeled Ornithine Decarboxylase Degron, and thus the fluorescent protein sufficiently accumulates to provide visualization.
However, even when the ODC-degron system was introduced into the pancreatic cancer cell line Panc-1, only about 0.06% cells emitting fluorescence (green) were obtained in total. With such a small number of cancer stem cells, a series of experiments including drug screening cannot be performed. Accordingly, further enrichment of cancer stem cells provided a cancer stem cell population in which cells having observed fluorescent coloring (i.e., cancer stem cells) accounted for about 81.18% in total (FIG. 1b). The obtained cancer stem cell population was designated as ZsGreen+.
A cell suspension prepared by suspending the cancer stem cell population (ZsGreen+) in a medium (DMEM medium containing 10% by volume FBS) was seeded in each well of a 24-well plate at a density of 5000 to 10000 cells/well, followed by culture at 37° C. overnight. Thereafter, according to the lipofectamin 2000 protocol, each miRNA was transfected at 10 pmol/well, and 48 hours and 72 hours later, the cells were counted. In addition, tests were also conducted under the same condition on a case where the miRNA was not introduced (untreated group, control), a case where has-miR-34a (SEQ ID NO: 8) was used (positive control) in place of the selected miRNA, and a case where a control miRNA (SEQ ID NO: 9) was used (NC1, negative control) in place of the selected miRNA. In addition, for comparison, the non-cancer stem cell population (ZsGreen−) was used in place of the cancer stem cell population (ZsGreen+) to conduct tests under the same condition.
The ratio of the number of cells under each condition to the number of control cells into which the miRNA was not introduced (cell viability, %) was determined.

[2] = test system: human large bowel cancer cells (DLD1 line); assay: Antitumor effect on human large bowel cancer cells, cell count after transfection; assay type: cell-based; conditions: 10 pmol/well, FIG. 11; for antitumor effect: 72 hours, positive control hsa-miR-34a; for proliferation inhibitory effect on large bowel cancer cells: cells counted 72 hours after transfection
Experimental: (§1) A cell suspension prepared by suspending human pancreatic cancer cells (Bxpc3 line) in D-MEM medium (containing 10% by volume FBS) was seeded in each well of a 24-well plate at 3×10^3 cells/well, followed by culture at 37° C. overnight. Thereafter, according to the lipofectamin 2000 protocol, each miRNA was transfected at 10 pmol/well, and 48 hours later, the cells were counted. In addition, tests were also conducted under the same condition on a case where the miRNA was not introduced (untreated group), a case where hsa-miR-34a (SEQ ID NO: 8) was used (positive control) in place of the miRNA, and a case where a control miRNA (SEQ ID NO: 9) was used (control miRNA, negative control) in place of the selected miRNA.
(§2) As to hsa-miR-136-5p, hsa-miR-3065-3p, hsa-miR-4727-5p, hsa-miR-378g, hsa-miR-181a-5p, hsa-miR-362-5p and hsa-miR-608, evaluation was performed of the antitumor effect on human large bowel cancer cells. The specific test method is the same as that for Test Example 4 except that human large bowel cancer cells (DLD1 line) were used as cancer cells, and that the cells were counted 72 hours after transfection.

[3] = test system: human pancreatic cancer cells (Bxpc3 line); assay: Antitumor effect on human pancreatic cancer cells (1), cell count after transfection; assay type: cell-based; conditions: 10 pmol/well, FIG. 8; for antitumor effect: 48 hours, positive control hsa-miR-34a; for proliferation inhibitory effect on pancreatic cancer cells: cells counted 48 hours later
Experimental: as §1

[4] = test system: human esophageal cancer cells (TE11 line); assay: Antitumor effect on human esophageal cancer cells, cell count after transfection; assay type: cell-based; conditions: 10 pmol/well, FIG. 12; for antitumor effect: 72 hours, positive control hsa-miR-34a; for proliferation inhibitory effect on esophageal cancer cells: cells counted 72 hours after transfection
Experimental: as §1
as §2, with “hsa-miR-378g and” for “hsa-miR-378g,”, “hsa-miR-181a-5p,” for “hsa-miR-181a-5p, hsa-miR-362-5p and hsa-miR-608,”, “esophageal” for “large bowel”, “(TE11” for “(DLD1”

Substance	proliferation inhibitory effect on cancer stem cells (cell viability) [1]	antitumor effect [2]	proliferation inhibitory effect on large bowel cancer cells [2]	antitumor effect [3]	proliferation inhibitory effect on pancreatic cancer cells [3]	antitumor effect [4]	proliferation inhibitory effect on esophageal cancer cells [4]
has-miR-34a: positive control miRNA (SEQ ID NO: 8), conventionally considered to have the highest therapeutic effect on solid tumor (UGGCAGUGUCUUAGCUGGUUGU; listed as RNA, chemistry not given here; listed as Homo sapiens) [reference compound]	not sufficient	–	–	–	–	–	–
hsa-miR-362-5p: human-derived miR-362-5p; base sequence set forth in SEQ ID NO: 6 as mature miRNA (AAUCCUUGGAACCUAGGUGUGAGU; listed as RNA, chemistry not given here; listed as Homo sapiens)	effectively suppress proliferation of cancer stem cells; also recorded: prominent proliferation inhibitory effect	much better antitumor effect than that of hsa-miR-34a; also recorded: particularly remarkable antitumor effect	strong proliferation inhibitory effect	–	–	–	–
hsa-miR-378g: human-derived miR-378g; base sequence set forth in SEQ ID NO: 4 as mature miRNA (ACUGGGCUUGGAGUCAGAAG; listed as RNA, chemistry not given here; listed as Homo sapiens)	effectively suppress proliferation of cancer stem cells	much better antitumor effect than that of hsa-miR-34a	strong proliferation inhibitory effect	much better antitumor effect than that of hsa-miR-34a	strong proliferation inhibitory effect	much better antitumor effect than that of hsa-miR-34a	strong proliferation inhibitory effect
hsa-miR-608: human-derived miR-608; base sequence set forth in SEQ ID NO: 7 as mature miRNA (AGGGGUGGUGUUGGGACAGCUCCGU; listed as RNA, chemistry not given here; listed as Homo sapiens)	effectively suppress proliferation of cancer stem cells; also recorded: prominent proliferation inhibitory effect	much better antitumor effect than that of hsa-miR-34a; also recorded: particularly remarkable antitumor effect	strong proliferation inhibitory effect	–	–	–	–
hsa-miR-4727-5p: human-derived miR-4727-5p; base sequence set forth in SEQ ID NO: 3 as mature miRNA (AUCUGCCAGCUUCCACAGUGG; listed as RNA, chemistry not given here; listed as Homo sapiens)	effectively suppress proliferation of cancer stem cells	much better antitumor effect than that of hsa-miR-34a	strong proliferation inhibitory effect	much better antitumor effect than that of hsa-miR-34a	strong proliferation inhibitory effect	much better antitumor effect than that of hsa-miR-34a	strong proliferation inhibitory effect
